One assay concerns the target T1, Human CD73 (Homo sapiens, UniProt P21589).
T1 construct: purchased R&D Systems; host or cells: CHO cells
T1 sequence (P21589 27-549): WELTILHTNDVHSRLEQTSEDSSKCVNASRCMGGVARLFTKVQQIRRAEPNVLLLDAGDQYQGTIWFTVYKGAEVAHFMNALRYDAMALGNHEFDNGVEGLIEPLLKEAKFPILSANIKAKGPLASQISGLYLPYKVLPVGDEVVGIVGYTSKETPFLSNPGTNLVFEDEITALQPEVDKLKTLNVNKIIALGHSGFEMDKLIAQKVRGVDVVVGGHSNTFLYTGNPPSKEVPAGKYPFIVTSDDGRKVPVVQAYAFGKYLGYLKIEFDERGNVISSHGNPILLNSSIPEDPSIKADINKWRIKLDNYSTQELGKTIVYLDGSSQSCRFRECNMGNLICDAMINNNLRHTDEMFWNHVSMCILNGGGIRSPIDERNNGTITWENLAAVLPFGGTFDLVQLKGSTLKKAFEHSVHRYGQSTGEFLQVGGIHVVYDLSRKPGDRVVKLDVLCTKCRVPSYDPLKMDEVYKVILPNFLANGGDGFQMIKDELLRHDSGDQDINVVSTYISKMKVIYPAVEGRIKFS
Put plainly: CD73 Enzyme Assay (EnzChek PNP/MESG kinetic readout of AMP hydrolysis). To be noted: 0.25 nM hCD73, 25 μM AMP; read-out: CD73 Enzyme Assay IC50. The class given is biochemical. An outline of the steps: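 Compounds tested as 15-point, 3-fold dilution series (300 μM to 0.0002 μM) in DMSO. Kinetic absorbance at 360 nm read every minute for 10–20 min, initial velocity taken from the linear portion.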

Assay [1] has as its target T2, CD73 on U138 human neuroglioma cells (Homo sapiens, UniProt P21589).
T2 construct: U138 cells were obtained from ATCC and cultured in DMEM with 10% FBS; host or cells: U138 human neuroglioma cells
T2 sequence (P21589 27-549): T1 sequence (P21589 27-549)
Put plainly: CD73 Cell-Based Assay (inorganic phosphate from AMP, malachite green). The note with it: AMP substrate, 2 hours at 37° C., read-out: CD73 Cell-Based assay IC50. An outline of the steps: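 U138 cells, seeded the day before at 2500 per well, were washed and given AMP substrate (200 μM in the added mixture, before dilution into the buffer) together with compound. After 2 h at 37 °C in 5% CO2, inorganic phosphate in the supernatant was measured with malachite green.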

Among the data in US12331068B2, “Compositions and methods for inhibiting CD73” (Peloton Therapeutics, Inc., priority 2018, dated 2025) are IC50 values, retold here.

Where only a bound is given, the exact number is not on record here.

In the case of `C[C@H](Nc1c(C#N)c(Cl)nc2c1cnn2[C@@H]1O[C@H](CS(=O)(=O)CP(=O)(O)O)[C@@H](O)[C@H]1O)c1ccc(F)cc1` [Compound 184, (((((2S,3S,4R,5R)-5-(6-chloro-5-cyano-4-(((S)-1-(4-fluorophenyl)ethyl)amino)-1H-pyrazolo[3,4-b]pyridin-1-yl)-3,4-dihydroxytetrahydrofuran-2-yl)methyl)sulfonyl)methyl)phosphonic acid], the IC50 (at Human CD73; in assay [1]) was under 10 nM throughout.

Turning to `C[C@@H](Nc1c(C#N)c(Cl)nc2c1ccn2[C@@H]1O[C@H](CS(=O)(=O)CP(=O)(O)O)[C@@H](O)[C@H]1O)c1ccc(C#N)cc1` [Compound 178], the IC50 (at Human CD73; in assay [1]) was under 10 nM throughout.

Take `C[C@@H](Nc1c(C#N)c(Cl)nc2c1cnn2[C@@H]1O[C@H](COP(=O)(O)CP(=O)(O)O)[C@@H](O)[C@H]1O)c1ccccc1F` [Compound 248]: the concentration for half-maximal inhibition (IC50) (at Human CD73; in assay [1]) was under 10 nM each time.

For the compound `C[C@@H](Nc1c(C#N)c(Cl)nc2c1ccn2[C@@H]1O[C@H](COP(=O)(O)CP(=O)(O)O)[C@@H](O)[C@@H]1F)c1ccc(C#N)cc1` [Compound 239], the IC50 (on Human CD73; in assay [1]) was under 10 nM each time.

In the case of `C[C@@H](Nc1c(C#N)c(Cl)nc2c1ccn2[C@@H]1O[C@H](CS(=O)(=O)CP(=O)(O)O)[C@@H](O)[C@H]1O)c1cccc(C#N)c1` [Compound 179], the 50% inhibitory concentration (IC50) (on Human CD73; in assay [1]) was under 10 nM throughout.

As to `N#Cc1c(Cl)nc2c(ccn2[C@@H]2O[C@H](COCP(=O)(O)O)[C@@H](O)[C@H]2O)c1NC1CC(F)(F)C1` [Compound 10], the half-inhibitory concentration (IC50) (on Human CD73; in assay [1]) was under 10 nM in each case.

With `N#Cc1c(Cl)nc2c(ncn2[C@@H]2O[C@H](COCP(=O)(O)O)[C@@H](O)[C@H]2O)c1NC1CCCC1` [Compound 55, ((((2R,3S,4R,5R)-5-(5-chloro-6-cyano-7-(cyclopentylamino)-3H-imidazo[4,5-b]pyridin-3-yl)-3,4-dihydroxytetrahydrofuran-2-yl)methoxy)methyl)phosphonic acid], the IC50 (at Human CD73; in assay [1]) was under 10 nM in each case.

On to `N#Cc1c(Cl)nc2c(cnn2[C@@H]2O[C@H](COP(=O)(O)CP(=O)(O)O)[C@@H](O)[C@H]2O)c1N1CC2CC2C1` (stereo partly shown) [Compound 72], for which the concentration for half-maximal inhibition (IC50) (at Human CD73; in assay [1]) was under 10 nM throughout.

In the case of `N#Cc1c(Cl)nc2c(cnn2[C@@H]2O[C@H](CS(=O)(=O)CP(=O)(O)O)[C@@H](O)[C@H]2O)c1NC1CC(F)(F)C1` [Compound 129], the IC50 (on Human CD73; in assay [1]) was under 10 nM each time.

For the compound `N#Cc1c(Cl)nc2c(ccn2[C@@H]2O[C@H](CS(=O)(=O)CP(=O)(O)O)[C@@H](O)[C@H]2O)c1NC1CC(F)(F)C1` [Compound 20], the IC50 (at Human CD73; in assay [1]) was under 10 nM in each case.

`N#Cc1c(Cl)nc2c(ncn2[C@@H]2O[C@H](COCP(=O)(O)O)[C@@H](O)[C@H]2O)c1N1CC[C@@H](F)C1` [Compound 83]: the 50% inhibitory concentration (IC50) (on Human CD73; in assay [1]) was under 10 nM each time.

For the compound `CC(C)Nc1c(C#N)c(Cl)nc2c1ccn2[C@@H]1O[C@H](COP(=O)(O)CP(=O)(O)O)[C@@H](O)[C@H]1O` [Compound 207], the IC50 (on Human CD73; in assay [1]) was under 10 nM throughout.

Consider `N#Cc1c(Cl)nc2c(cnn2[C@@H]2O[C@H](COP(=O)(O)CP(=O)(O)O)[C@@H](O)[C@H]2O)c1NC1CC(F)(F)C1` [Compound 322], for which the IC50 (on Human CD73; in assay [1]) was under 10 nM in each case.

Take `N#Cc1c(Cl)nc2c(ccn2[C@@H]2O[C@H](COP(=O)(O)CP(=O)(O)O)[C@@H](O)[C@H]2O)c1N1CCC(F)(F)C1` [Compound 37]: the IC50 (at Human CD73; in assay [1]) was under 10 nM in each case.

Consider `N#Cc1c(Cl)nc2c(c(F)cn2[C@@H]2O[C@H](COCP(=O)(O)O)[C@@H](O)[C@H]2O)c1NC1CC(F)(F)C1` [Compound 160], for which the IC50 (at Human CD73; in assay [1]) was under 10 nM each time.

In the case of `N#Cc1c(Cl)nc2c(c(F)cn2[C@@H]2O[C@H](CS(=O)(=O)CP(=O)(O)O)[C@@H](O)[C@H]2O)c1NC1CC(F)(F)C1` [Compound 162], the IC50 (at Human CD73; in assay [1]) was under 10 nM throughout.

For `N#Cc1c(Cl)nc2c(ncn2[C@@H]2O[C@H](CS(=O)(=O)CP(=O)(O)O)[C@@H](O)[C@H]2O)c1NC1CCC(F)(F)CC1` [Compound 126], the half-inhibitory concentration (IC50) (at Human CD73; in assay [1]) was under 10 nM in each case.

As to `N#Cc1c(Cl)nc2c(cnn2[C@@H]2O[C@H](CS(=O)(=O)CP(=O)(O)O)[C@@H](O)[C@H]2O)c1N[C@H]1C[C@@H](F)C1` [Compound 150], the IC50 (on Human CD73; in assay [1]) was under 10 nM each time.

As to `N#Cc1c(Cl)nc2c(ccn2[C@@H]2O[C@H](COP(=O)(O)CP(=O)(O)O)[C@@H](O)[C@@H]2F)c1NC1CCCC1` [Compound 216], the IC50 (on Human CD73; in assay [1]) was under 10 nM in each case.

Take `C[C@H](Nc1c(C#N)c(Cl)nc2c1cnn2[C@@H]1O[C@H](CS(=O)(=O)CP(=O)(O)O)[C@@H](O)[C@H]1O)c1cccc(C#N)c1` [Compound 200]: the concentration for half-maximal inhibition (IC50) (on Human CD73; in assay [1]) was under 10 nM each time.

As to `N#Cc1c(Cl)nc2c(c(F)cn2[C@@H]2O[C@H](CS(=O)(=O)CP(=O)(O)O)[C@@H](O)[C@H]2O)c1N1CCC(F)(F)C1` [Compound 152], the concentration for half-maximal inhibition (IC50) (as a rule, the midpoint of a concentration-inhibition curve) is under 10 nM at Human CD73 and over 100 nM in assay [1].

Take `C[C@H](Nc1c(C#N)c(Cl)nc2c1ccn2[C@@H]1O[C@H](CS(=O)(=O)CP(=O)(O)O)[C@@H](O)[C@H]1O)c1ccc(F)cc1` [Compound 18, (((((2S,3S,4R,5R)-5-(6-chloro-5-cyano-4-(((S)-1-(4-fluorophenyl)ethyl)amino)-1H-pyrrolo[2,3-b]pyridin-1-yl)-3,4-dihydroxytetrahydrofuran-2-yl)methyl)sulfonyl)methyl)phosphonic acid]: the IC50 (at Human CD73; in assay [1]) was under 10 nM throughout.

`C[C@@H](Nc1c(C#N)c(Cl)nc2c1ccn2[C@@H]1O[C@H](CS(=O)(=O)CP(=O)(O)O)[C@@H](O)[C@H]1O)c1ccc(F)cc1` [Compound 27, (((((2S,3S,4R,5R)-5-(6-chloro-5-cyano-4-(((R)-1-(4-fluorophenyl)ethyl)amino)-1H-pyrrolo[2,3-b]pyridin-1-yl)-3,4-dihydroxytetrahydrofuran-2-yl)methyl)sulfonyl)methyl)phosphonic acid]: the half-inhibitory concentration (IC50) (on Human CD73; in assay [1]) was under 10 nM each time.

As for `N#Cc1c(Cl)nc2c(ncn2[C@@H]2O[C@H](CS(=O)(=O)CP(=O)(O)O)[C@@H](O)[C@H]2O)c1NC1CC(F)(F)C1` [Compound 113, (((((2S,3S,4R,5R)-5-(5-chloro-6-cyano-7-((3,3-difluorocyclobutyl)amino)-3H-imidazo[4,5-b]pyridin-3-yl)-3,4-dihydroxytetrahydrofuran-2-yl)methyl)sulfonyl)methyl)phosphonic acid], the 50% inhibitory concentration (IC50) (on Human CD73; in assay [1]) was under 10 nM each time.

For the compound `N#Cc1c(Cl)nc2c(ccn2[C@@H]2O[C@H](COCP(=O)(O)O)[C@@H](O)[C@H]2O)c1N1CC(F)(F)C1` [Compound 65], the IC50 (on Human CD73; in assay [1]) was under 10 nM in each case.

For the compound `N#Cc1c(Cl)nc2c(ccn2[C@@H]2O[C@H](COCP(=O)(O)O)[C@@H](O)[C@H]2O)c1N[C@@H]1CCC(F)(F)C1` [Compound 46], the 50% inhibitory concentration (IC50) (on Human CD73; in assay [1]) was under 10 nM throughout.

As for `N#Cc1c(Cl)nc2c(cnn2[C@@H]2O[C@H](CS(=O)(=O)CP(=O)(O)O)[C@@H](O)[C@H]2O)c1NC1CCC(F)(F)CC1` [Compound 130], the half-inhibitory concentration (IC50) (at Human CD73; in assay [1]) was under 10 nM each time.

On to `C[C@H](Nc1c(C#N)c(Cl)nc2c1ncn2[C@@H]1O[C@H](COP(=O)(O)CP(=O)(O)O)[C@@H](O)[C@H]1O)c1ccc(F)cn1` [Compound 240], for which the IC50 (at Human CD73; in assay [1]) was under 10 nM in each case.

Take `N#Cc1nc2c(ccn2[C@@H]2O[C@H](COCP(=O)(O)O)[C@@H](O)[C@H]2O)c(NC2CCCC2)c1Cl` [Compound 101]: the IC50 (on Human CD73; in assay [1]) was under 10 nM throughout.

On to `N#Cc1c(Cl)nc2c(ccn2[C@@H]2O[C@H](CS(=O)(=O)CP(=O)(O)O)[C@@H](O)[C@H]2O)c1NC1CCC1` [Compound 19], for which the IC50 (on Human CD73; in assay [1]) was under 10 nM each time.

`C[C@@H](Nc1c(C#N)c(Cl)nc2c1cnn2[C@@H]1O[C@H](CS(=O)(=O)CP(=O)(O)O)[C@@H](O)[C@H]1O)c1ccc(C#N)cc1` [Compound 192]: the IC50 (at Human CD73; in assay [1]) was 10 to 100 nM each time.

For the compound `C[C@@H](Nc1c(C#N)c(Cl)nc2c1ccn2[C@@H]1O[C@H](COP(=O)(O)CP(=O)(O)O)[C@@H](O)[C@H]1O)c1ccc(F)cc1` [Compound 34], the IC50 (on Human CD73; in assay [1]) was under 10 nM throughout.
